# Where a SMILES comes first, the peptide text is derived from it. [ ]: non-standard residue; d: D form. The star is where a group is joined. Sta = CC(C)C[C@H](N)[C@@H](O)CC(=O)O; Isovaleryl = CC(C)CC(=O)*
# How the values were obtained:
# human renin = biological target: T1, human renin (Homo sapiens, UniProt P00797); experiment: Human renin inhibition in vitro; format: biochemical; settings: conversion of angiotensinogen to angiotensin I, 2 h at 37° C., pH 7.4
# T1 construct: purchased National Institute for Biological Standards, London
# T1 sequence (P00797 67-406): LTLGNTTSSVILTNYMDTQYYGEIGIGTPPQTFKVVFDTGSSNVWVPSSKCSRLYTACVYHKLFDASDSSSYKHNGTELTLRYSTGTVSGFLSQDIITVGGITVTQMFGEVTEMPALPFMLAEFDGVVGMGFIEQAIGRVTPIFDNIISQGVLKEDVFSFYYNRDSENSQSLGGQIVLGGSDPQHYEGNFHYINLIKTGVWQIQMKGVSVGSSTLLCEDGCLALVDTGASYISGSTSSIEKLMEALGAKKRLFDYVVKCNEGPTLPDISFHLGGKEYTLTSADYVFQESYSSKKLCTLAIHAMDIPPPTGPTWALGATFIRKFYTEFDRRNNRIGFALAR
# Experimental: Compounds of Formula I were evaluated as inhibitors of human renin in an in vitro assay, as follows: This human renin inhibition test has been previously described in detail [Papaioannou et al., Clinical and Experimental Hypertension, A7(9), 1243-1257 (1985)-]. Human renin was obtained from the National Institute for Biological Standards, London. An incubation mixture was prepared containing the following components: in a total volume of 0.25 mL: 100 mM Tris-acetate buffer at pH 7.4, 25×10^−6 Goldblatt units of renin, 0.05 mL of plasma from human volunteers taking oral contraceptives, 6.0 mM Na-EDTA, 2.4 mM phenylmethyl sulfonyl fluoride, 1.5 mM 8-hydroxyquinoline, 0.4 mg/mL bovine serum albumin (BSA), and 0.024 mg/mL neomycin sulfate. This mixture was incubated for two hours at 37° C. in the presence or absence of renin inhibitors. The produced angiotensin I was determined by radioimmunoassay (New England Nuclear kit). Test compounds to be assayed were dissolved in DMSO and diluted with 100 mM Tris-acetate buffer at pH 7.4 containing 0.5% BSA to the appropriate concentration. The final concentration of organic solvent in the reaction mixture was less than 1%. Control incubations at 37° C. were used to correct for effects of organic solvent on renin activity.
# hog renin = settings: after the injection of hog renin into nephrectomized rats; cited from earlier work
IC50 (human renin) [nM],Structure (SMILES),blood pressure in vivo (hog renin)
34,"C#CC[C@H](NC(=O)[C@@H](CC(=O)N(C)CCN(C)C)Cc1ccccc1)C(=O)N[C@@H](CC1CCCCC1)[C@@H](O)[C@@H](O)CC#C (relative stereo) [Example 1, N1-[1R*-[[[1S,1R*-(cyclohexylmethyl)-2S*,3R*-dihydroxyhexynyl]amino]carbonyl]-3-butynyl]-N-4-[2-(dimethylamino)ethyl]-N-4-methyl-2S*-(phenylmethyl)Butanediamide]",
,CC(C)CC(=O)N[C@H](C(=O)N[C@H](C(=O)N[C@@H](CC(C)C)[C@@H](O)CC(=O)N[C@@H](C)C(=O)N[C@@H](CC(C)C)[C@@H](O)CC(=O)O)C(C)C)C(C)C [pepstatin] (Isovaleryl-VV[Sta]A[Sta]-OH),reduce blood pressure

# Reference: patent publication US6667414B2, “Use of propargyl glycine amino propargyl diol compounds for treatment of congestive heart failure” (Pharmacia Corporation, priority 1991, dated 2003)
